We go through eight compounds from patent US20250206761A1, “HALOINDOLE MACROCYCLIC COMPOUNDS FOR THE TREATMENT OF CANCER” (Hoffmann-La Roche Inc., priority 2022, published 2025).

A value given as a limit tells only on which side of the number the result lay.

What all share (type): cell-based, human
Assay [1] concerns NCI-H358 (ATCC-CRL5807) cells. The assay can be described thus: Cell viability assay, G12C (NCI-H358). The settings on record: Homo sapiens; KRAS cell viability, NCI-H358, 72 hrs, Cell Counting Kit-8. The essentials:
(§1)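 72-hr compound treatment, 0.5% DMSO final; NCI-H358 seeded 5,000 cells/well, AGS and SW620 2,000 cells/well. Endpoint: CCK-8, 2-hr development, OD450 minus OD650.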

For the next assay, the system named is SW620 (ATCC-CCL-227). Put plainly: Cell viability assay, G12V (SW620). The settings on record: Homo sapiens, SW-620; KRAS cell viability, SW620, 72 hrs, Cell Counting Kit-8. The essentials:
as §1

Assay [2] concerns phosphorylation of ERK, KRAS G12C in NCJ-H358 cells. The assay can be described thus: pERK inhibition assay, KRAS G12C. The settings on record: Homo sapiens, 4 hours. The gist of the method:
(§2)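 Cells in RPMI-1640 with 10% FBS were plated overnight (NCJ-H358 30,000, AGS 20,000, SW620 30,000 cells/well), then exposed to compounds in 0.5% DMSO for 4 h. Fixed, methanol-permeabilized cells were probed for pERK by HRP-based in-cell ELISA with TMB, OD450; IC50 from 4-parameter sigmoidal fit.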

Assay [3] relates to phosphorylation of ERK, KRAS G12D in AGS cells. The assay can be described thus: pERK inhibition assay, KRAS G12D. As to conditions: Homo sapiens, 4 hours. The gist of the method:
as §2

The subject of assay [4] is phosphorylation of ERK, KRAS G12V in SW620. Put plainly: pERK inhibition assay, KRAS G12V. As to conditions: Homo sapiens, SW-620, SW620, 4 hours. The essentials:
as §2

Consider `CO[C@@H](C)c1ncc(N2CCN(C)CC2)cc1-c1c2c3cc(c(F)cc3n1CC(F)(F)F)-c1cc(O)cc(c1)C[C@H](NC(=O)[C@H](C(C)C)N(C)C(=O)[C@H]1CCN(C(=O)[C@H](F)Cl)C1)C(=O)N1CCC[C@H](N1)C(=O)OCC(C)(C)C2` (atropisomer, axis not shown; (M)) [Example 8, (3S)-1-[(2R)-2-chloro-2-fluoro-acetyl]-N-[(1S)-1-[[(8S,14S)-25-fluoro-4-hydroxy-(21M)-21-[2-[(1S)-1-methoxyethyl]-5-(4-methylpiperazin-1-yl)-3-pyridyl]-18,18-dimethyl-9,15-dioxo-22-(2,2,2-trifluoroethyl)-16-oxa-10,22,28-triazapentacyclo[18.5.2.1^2,6.1^10,14.0^23,27]nonacosa-1(26),2,4,6(29),20,23(27),24-heptaen-8-yl]carbamoyl]-2-methyl-propyl]-N-methyl-pyrrolidine-3-carboxamide], for which the IC50 – broadly, the concentration that gives 50% inhibition – is 3 nM in assay [1]; 175 nM in the assay with SW620 (ATCC-CCL-227); 2 nM in assay [2]; 90 nM in assay [3]; 127 nM in assay [4].

Take `CO[C@@H](C)c1ncc(N2CCN(C)CC2)cc1-c1c2c3cc(c(C)cc3n1CC(F)(F)F)-c1csc(n1)C[C@H](NC(=O)[C@H](C(C)C)N(C)C(=O)C1(F)CCN(C(=O)[C@H](F)Cl)CC1)C(=O)N1CCC[C@H](N1)C(=O)OCC(C)(C)C2` (atropisomer, axis not shown; (M)) [Example 9, 1-[(2R)-2-chloro-2-fluoro-acetyl]-4-fluoro-N-[(1S)-1-[[(7S,13S)-(20M)-20-[2-[(1S)-1-methoxyethyl]-5-(4-methylpiperazin-1-yl)-3-pyridyl]-17,17,24-trimethyl-8,14-dioxo-21-(2,2,2-trifluoroethyl)-15-oxa-4-thia-9,21,27,28-tetrazapentacyclo[17.5.2.1^2,5.1^9,13.0^22,26]octacosa-1(25),2,5(28),19,22(26),23-hexaen-7-yl]carbamoyl]-2-methyl-propyl]-N-methyl-piperidine-4-carboxamide]: the IC50 in assay [1] is 7 nM; in the assay with SW620 (ATCC-CCL-227) it was 28 nM; in assay [2] it was 3 nM; in assay [3] it was 23 nM; in assay [4] it was 22 nM.

On to `CO[C@@H](C)c1ncc(N2CCN(C)CC2)cc1-c1c2c3cc(c(F)cc3n1CC(F)(F)F)-c1csc(n1)C[C@H](NC(=O)[C@H](C(C)C)N(C)C(=O)C1(F)CCN(C(=O)[C@H](F)Cl)CC1)C(=O)N1CCC[C@H](N1)C(=O)OCC(C)(C)C2` (atropisomer, axis not shown; (M)) [Example 10, 1-[(2R)-2-chloro-2-fluoro-acetyl]-4-fluoro-N-[(1S)-1-[[(7S,13S)-24-fluoro-(20M)-20-[2-[(1S)-1-methoxyethyl]-5-(4-methylpiperazin-1-yl)-3-pyridyl]-17,17-dimethyl-8,14-dioxo-21-(2,2,2-trifluoroethyl)-15-oxa-4-thia-9,21,27,28-tetrazapentacyclo[17.5.2.1^2,5.1^9,13.0^22,26]octacosa-1(25),2,5(28),19,22(26),23-hexaen-7-yl]carbamoyl]-2-methyl-propyl]-N-methyl-piperidine-4-carboxamide], for which the IC50 in assay [1] is under 1 nM; with SW620 (ATCC-CCL-227) it was 8 nM; in assay [2] it was under 1 nM; in assay [3] it was 16 nM; in assay [4], 6 nM.

Regarding `CO[C@@H](C)c1ncc(N2CCN(C)CC2)cc1-c1c2c3cc(c(F)cc3n1CC(F)(F)F)-c1csc(n1)C[C@H](NC(=O)[C@H](C(C)C)N1CCCC3(CN(C(=O)[C@H](F)Cl)C3)C1=O)C(=O)N1CCC[C@H](N1)C(=O)OCC(C)(C)C2` (atropisomer, axis not shown; (M)) [Example 11, (2S)-2-[2-[(2R)-2-chloro-2-fluoro-acetyl]-5-oxo-2,6-diazaspiro[3.5]nonan-6-yl]-N-[(7S,13S)-24-fluoro-(20M)-20-[2-[(1S)-1-methoxyethyl]-5-(4-methylpiperazin-1-yl)-3-pyridyl]-17,17-dimethyl-8,14-dioxo-21-(2,2,2-trifluoroethyl)-15-oxa-4-thia-9,21,27,28-tetrazapentacyclo[17.5.2.1^2,5.1^9,13.0^22,26]octacosa-1(25),2,5(28),19,22(26),23-hexaen-7-yl]-3-methyl-butanamide], the IC50 is under 1 nM in assay [1]; 29 nM in the assay on SW620 (ATCC-CCL-227); under 1 nM in assay [2]; 27 nM in assay [3]; 22 nM in assay [4].

As to `CO[C@@H](C)c1ncc(N2CCN(C)CC2)cc1-c1c2c3c(F)c(ccc3n1CC(F)(F)F)-c1csc(n1)C[C@H](NC(=O)[C@H](C(C)C)N1CCCC3(CCN(C(=O)[C@H](F)Cl)CC3)C1=O)C(=O)N1CCC[C@H](N1)C(=O)OCC(C)(C)C2` (atropisomer, axis not shown; (M)) [Example 20, (2S)-2-[9-[(2R)-2-chloro-2-fluoro-acetyl]-1-oxo-2,9-diazaspiro[5.5]undecan-2-yl]-N-[(7S,13S)-25-fluoro-(20M)-20-[2-[(1S)-1-methoxyethyl]-5-(4-methylpiperazin-1-yl)-3-pyridyl]-17,17-dimethyl-8,14-dioxo-21-(2,2,2-trifluoroethyl)-15-oxa-4-thia-9,21,27,28-tetrazapentacyclo[17.5.2.1^2,5.1^9,13.0^22,26]octacosa-1(25),2,5(28),19,22(26),23-hexaen-7-yl]-3-methyl-butanamide], the IC50 stood at 3 nM in assay [1]; 66 nM with SW620 (ATCC-CCL-227); 5 nM in assay [2]; 98 nM in assay [3]; 73 nM in assay [4].

Consider `CCn1c(-c2cc(N3CCN(CC(F)(F)F)CC3)cnc2[C@H](C)OC)c2c3cc(c(F)cc31)-c1csc(n1)C[C@H](NC(=O)[C@H](C(C)C)N(C)C(=O)C1(F)CCN(C(=O)[C@H](F)Cl)CC1)C(=O)N1CCC[C@H](N1)C(=O)OCC(C)(C)C2` (atropisomer, axis not shown; (M)) [Example 49, 1-[(2R)-2-chloro-2-fluoro-acetyl]-N-[(1S)-1-[[(7S,13S)-21-ethyl-24-fluoro-(20M)-20-[2-[(1S)-1-methoxyethyl]-5-[4-(2,2,2-trifluoroethyl)piperazin-1-yl]-3-pyridyl]-17,17-dimethyl-8,14-dioxo-15-oxa-4-thia-9,21,27,28-tetrazapentacyclo[17.5.2.1^2,5.1^9,13.0^22,26]octacosa-1(25),2,5(28),19,22(26),23-hexaen-7-yl]carbamoyl]-2-methyl-propyl]-4-fluoro-N-methyl-piperidine-4-carboxamide], for which the IC50 in assay [1] was under 1 nM; with SW620 (ATCC-CCL-227), 42 nM; in assay [2] it was 3 nM; in assay [3], 65 nM; in assay [4], 20 nM.

For `CCn1c(-c2cc(N3CCOCC3)cnc2[C@H](C)OC)c2c3cc(c(F)cc31)-c1csc(n1)C[C@H](NC(=O)[C@H](C(C)C)N1CC[C@]3(CCN(C(=O)[C@H](F)Cl)C3)C1=O)C(=O)N1CCC[C@H](N1)C(=O)OCC(C)(C)C2` (atropisomer, axis not shown; (M)) [Example 51, (2S)-2-[(5S)-7-[(2R)-2-chloro-2-fluoro-acetyl]-1-oxo-2,7-diazaspiro[4.4]nonan-2-yl]-N-[(7S,13S)-21-ethyl-24-fluoro-(20M)-20-[2-[(1S)-1-methoxyethyl]-5-morpholino-3-pyridyl]-17,17-dimethyl-8,14-dioxo-15-oxa-4-thia-9,21,27,28-tetrazapentacyclo[17.5.2.1^2,5.1^9,13.0^22,26]octacosa-1(25),2,5(28),19,22(26),23-hexaen-7-yl]-3-methyl-butanamide], the IC50 in assay [1] was under 1 nM; in the assay on SW620 (ATCC-CCL-227), 52 nM; in assay [2], 2 nM; in assay [3], 62 nM; in assay [4], 57 nM.

Turning to `CCn1c(-c2cc(N3CCOCC3)cnc2[C@H](C)OC)c2c3cc(c(F)cc31)-c1csc(n1)C[C@H](NC(=O)[C@H](C(C)C)N1CCC3(CN(C(=O)[C@H](F)Cl)C3)C1=O)C(=O)N1CCC[C@H](N1)C(=O)OCC(C)(C)C2` (atropisomer, axis not shown; (M)) [Example 52, (2S)-2-[2-[(2R)-2-chloro-2-fluoro-acetyl]-5-oxo-2,6-diazaspiro[3.4]octan-6-yl]-N-[(7S,13S)-21-ethyl-24-fluoro-(20M)-20-[2-[(1S)-1-methoxyethyl]-5-morpholino-3-pyridyl]-17,17-dimethyl-8,14-dioxo-15-oxa-4-thia-9,21,27,28-tetrazapentacyclo[17.5.2.1^2,5.1^9,13.0^22,26]octacosa-1(25),2,5(28),19,22(26),23-hexaen-7-yl]-3-methyl-butanamide], the IC50 in assay [1] is under 1 nM; in the assay with SW620 (ATCC-CCL-227), 196 nM; in assay [2], 4 nM; in assay [3], 103 nM; in assay [4], 58 nM.
